System: Rab10 pThr73
Experiment: Rab10 Thr73 dephosphorylation in LRRK2^R1441C MEFs
Format: cell-based
Conditions: Mus musculus; dose response, 4 h treatment
Excerpt: Primary MEFs were generated as described in a previous study (Wiggin et al., Mol. Cell Biol. 2002 April; 22(8):2871-81.). Briefly, the uterine horn was collected from adult female mice at day E12.5 and transferred to a 10 cm tissue culture dish containing cold PBS. Two forceps were used to tear the yolk sacs to isolate each embryo. Forceps were cleaned thoroughly with 70% ethanol between each embryo isolation. The embryos were culled, and a tissue piece was collected in a PCR tube for genotyping. The red tissue of the embryo, which grows to become the heart and liver, was removed. The remainder of the embryo was minced with a scalpel blade and incubated with 7.5 ml trypsin-EDTA solution for 10 minutes in a 37° C. tissue culture CO2 incubator. The dish was removed from the incubator and checked under a light microscope for single cells. 7.5 ml complete media was added to the trypsinised cells, and the cell suspension was transferred to a 15 ml Falcon tube, centrifuged at 1200 rpm for 5 minutes at room temperature. […]
Culturing and passaging of adherent cell lines were carried out using aseptic technique in CL1 or CL2 (for PBMC isolation) biological safety cabinets. […] The cell pellet was discarded, and supernatant was collected for analysis by quantitative immunoblotting. […] Protein concentrations of cell lysates were determined using the Bradford assay. […]

SMILES	EC50
CNc1nc(Nc2ccc(C(=O)N3CCN(C[C@H]4CC[C@H](CSC(C)(C)[C@H](NC(=O)C5(F)CC5)C(=O)N5C[C@@H](O)CC5C(=O)NCc5ccc(-c6scnc6C)cc5)CC4)CC3)cc2OC)ncc1Cl (stereo partly drawn) [Cis-XL01126, (2S,4S)-1-((R)-3-((((1r,4R)-4-((4-(4-((5-chloro-4-(methylamino)pyrimidin-2-yl)amino)-3-methoxybenzoyl)piperazin-1-yl)methyl)cyclohexyl)methyl)thio)-2-(1-fluorocyclopropane-1-carboxamido)-3-methylbutanoyl)-4-hydroxy-N-(4-(4-methylthiazol-5-yl)benzyl)pyrrolidine-2-carboxamide]	158 nM
CNc1nc(Nc2ccc(C(=O)N3CCN(C[C@H]4CC[C@H](CSC(C)(C)[C@H](NC(=O)C5(F)CC5)C(=O)N5C[C@H](O)CC5C(=O)NCc5ccc(-c6scnc6C)cc5)CC4)CC3)cc2OC)ncc1Cl (stereo partly drawn) [XL01126, (2S,4R)-1-((R)-3-((((1R,4R)-4-((4-(4-((5-chloro-4-(methylamino)pyrimidin-2-yl)amino)-3-methoxybenzoyl)piperazin-1-yl)methyl)cyclohexyl)methyl)thio)-2-(1-fluorocyclopropane-1-carboxamido)-3-methylbutanoyl)-4-hydroxy-N-(4-(4-methylthiazol-5-yl)benzyl)pyrrolidine-2-carboxamide]	30 nM
